Experiments:
human TLR7 = biological target: T1, human TLR7 (Homo sapiens, UniProt Q9NYK1); test: TLR7 reporter gene assay (HEK-Blue-hTLR7, NFkB/AP-1 inducible SEAP); format: cell-based; conditions: HEK-Blue-hTLR7; read-out: EC50 in the TLR7 reporter gene assay
T1 construct: host or cells: HEK-Blue-hTLR7
T1 sequence (Q9NYK1 27-1049): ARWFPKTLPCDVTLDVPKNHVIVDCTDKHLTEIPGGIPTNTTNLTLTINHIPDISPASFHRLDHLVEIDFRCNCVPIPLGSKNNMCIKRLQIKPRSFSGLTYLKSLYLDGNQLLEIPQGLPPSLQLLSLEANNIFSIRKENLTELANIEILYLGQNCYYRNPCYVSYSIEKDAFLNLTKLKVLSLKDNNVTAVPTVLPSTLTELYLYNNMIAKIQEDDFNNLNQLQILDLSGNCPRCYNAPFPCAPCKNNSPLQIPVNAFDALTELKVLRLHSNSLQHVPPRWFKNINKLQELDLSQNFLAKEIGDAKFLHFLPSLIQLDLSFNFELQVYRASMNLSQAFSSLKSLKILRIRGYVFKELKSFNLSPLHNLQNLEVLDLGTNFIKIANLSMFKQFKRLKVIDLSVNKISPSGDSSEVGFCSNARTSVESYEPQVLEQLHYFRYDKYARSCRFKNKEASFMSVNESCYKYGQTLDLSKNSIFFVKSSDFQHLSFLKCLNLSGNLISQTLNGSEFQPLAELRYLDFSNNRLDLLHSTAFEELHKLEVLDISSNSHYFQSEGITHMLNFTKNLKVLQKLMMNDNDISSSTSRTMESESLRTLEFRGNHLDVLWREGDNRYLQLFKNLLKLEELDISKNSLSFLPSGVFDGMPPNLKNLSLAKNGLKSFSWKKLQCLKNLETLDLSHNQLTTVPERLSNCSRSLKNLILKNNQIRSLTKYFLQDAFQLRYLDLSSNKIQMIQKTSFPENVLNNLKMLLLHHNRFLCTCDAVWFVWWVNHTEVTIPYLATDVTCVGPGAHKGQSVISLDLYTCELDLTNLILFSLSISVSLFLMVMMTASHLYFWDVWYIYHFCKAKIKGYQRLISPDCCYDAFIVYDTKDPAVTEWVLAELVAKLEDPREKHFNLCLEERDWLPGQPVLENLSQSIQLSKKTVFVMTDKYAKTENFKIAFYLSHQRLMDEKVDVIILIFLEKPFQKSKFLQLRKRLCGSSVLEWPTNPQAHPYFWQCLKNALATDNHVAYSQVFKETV
Experimental: 2) TLR Stimulation Assay:
Compounds are tested for stimulation of human TLR7 and TLR8, respectively, via reporter gene expression analyzed in a cell line stably transfected with human TLR7 and TLR8, respectively, and coexpressing an NFkB/AP-1 inducible SEAP reporter gene. Stimulation with a TLR ligand leads to NFkB/AP-1 activation and upregulation and secretion of SEAP, which can be measured in the supernatant with QuantiBlue™ detection system (InvivoGen).
Cell lines used were either HEK-Blue-hTLR7 (InvivoGen #hkb-htlr7) or HEK-Blue-hTLR8 (InvivoGen #hkb-htlr8). Cells were cultured following manufacturer's instructions.
Assay: • prepare cell suspensions of each cell line with Nv=0.11×10^6 cells/ml in medium (DMEM 4.5 g/l Glucose, 2-4 mM L-glutamine+10% FBS) without antibiotics (Nv=number of living cells) • add 180 μl of the suspensions per well of a 96 well flat bottom cell culture plates (coster, #3506) • incubate the plates overnight at 37° C. and 5% CO2 • prepare samples and controls as solutions in DMSO: R848, CL075 (TLR 7/8 agonist by InvivoGen) and Guardiquimod each to a final concentration of 10 μM, ODN2006 (InvivoGen) and ODN2216 (InvivoGen) each to a final concentration 2 μM; • compounds of the invention are applied in dilution series to final concentrations of 30, 10, 3, 1, etc. μM • add 20 μl diluted compounds and controls (see above) to the wells • incubate plates for 20-24 h at 37° C. and 5% CO2 • prepare QuantiBlue™ (InvivoGen #10H19-MM) solution, following manufacturer's instructions: solubilize the powder of one pouch in 100 ml MilliQ grade water, heat at 37° C. in a water bath for about 30 min, filter the solution with a paper filter • add 100 μl prepared QuantiBlue™ solution in each well of a 96 well plate with flat bottom • add […] cell culture supernatant from the induced cells per well • incubate plates for 1 to 1.5 h at 37° C. (until an intense blue color has developed) • read OD at 620 nm with a plate reader • calculate EC50 from data points

cynomolgus monkeys = test: In vivo IFN-α secretion in cynomolgus monkeys (plasma IFN-α ELISA); conditions: cynomolgus monkey, single i.v. 30 min infusion, 0.1 mg/kg
Experimental: In the following studies, compounds according to the invention were examined in an in vivo cynomolgus monkey model. It is evaluated whether and at which applied dose the compounds cause secretion of IFN-α.
In particular, a defined single dose of test compound was applied intravenously to cynomolgus monkeys by a thirty minute infusion. At several time points after initiation of the intravenous compound application, blood samples (0.5 mL for approximately 0.25 mL plasma) were collected from the vena cephalica antebrachii or vena saphena into K3EDTA tubes from the animals. Blood samples were stored on crushed ice prior to centrifugation. Plasma was obtained by centrifugation at 4° C. and approximately 1800 g for 10 minutes and was aliquoted into labeled micro tubes and stored frozen at −70° C. or below. Plasma samples were thawed, diluted and used for determination of IFN-α levels using an IFN-α Elisa Kit (e.g. VeriKine™ Cynomolgus/Rhesus IFN-α ELISA Kit) according to the manufacturer's instructions.

SMILES: CCc1nc2c(N)nc3ccccc3c2n1CCCCN(C(C)=O)C1CCOCC1 [Example 1, N-(4-(4-Amino-2-ethyl-1H-imidazo[4,5-c]quinolin-1-yl)butyl)-N-(tetrahydro-2H-pyran-4-yl)acetamide]
- EC50 (human TLR7): 44 nM
- IFN-α secretion (plasma) (cynomolgus monkeys): up to 15,000 pg/ml
